Results from the NIST ThermoML archive (doi:10.1021/je0602465).
Several values for one entry are separate records, joined by “and”; a condition that tells them apart may be missing. Equal entries are not always repeated. Numbers after ± are expanded uncertainties.

Settings: Liquid; for vapor or sublimation pressure: low residence time flow method

Oc1ccccc1O [1,2-benzenediol]
Settings	vapor or sublimation pressure
511.3 K	81.47 ± 3.3 kPa
535.7 K	147 ± 5.9 kPa
547 K	187.4 ± 7.6 kPa
577.6 K	349.1 ± 14 kPa
595.6 K	487.9 ± 20 kPa
597.3 K	499.4 ± 20 kPa
621.8 K	742.9 ± 30 kPa
640.1 K	988.9 ± 40 kPa
640.9 K	992.8 ± 40 kPa
692.7 K	1996 ± 80 kPa and 1995 ± 80 kPa
711.5 K	2496 ± 100 kPa
727.5 K	2993 ± 120 kPa
727.9 K	2997 ± 120 kPa
753.5 K	4007 ± 160 kPa
754.8 K	3993 ± 160 kPa

Oc1cccc(O)c1 [1,3-benzenediol]
Settings	Critical pressure [kPa]	Critical temperature [K]	vapor or sublimation pressure [kPa]
546.7 K	–	–	84.54 ± 3.4
582.6 K	–	–	192.6 ± 7.8
631.7 K	–	–	494.8 ± 20
675.9 K	–	–	994.4 ± 40
728.6 K	–	–	1994 ± 80
790.6 K	–	–	3994 ± 160
813.7 K	–	–	4999 ± 200
831.3 K	–	–	5995 ± 240
Low residence time flow calorimetry	6240 ± 620	–	–
Low residence time flow method	–	836 ± 10	–

OCCCCCCO [1,6-hexanediol]
Settings	Critical pressure [kPa]	Critical temperature [K]	vapor or sublimation pressure [kPa]
523.2 K	–	–	93.33 ± 10
552.8 K	–	–	199.3 ± 22
597.1 K	–	–	500.6 ± 54
637.1 K	–	–	1001 ± 110
685.1 K	–	–	2007 ± 220
717.6 K	–	–	3024 ± 320
740 K	–	–	4012 ± 430
740.4 K	–	–	4054 ± 440
Low residence time flow calorimetry	4080 ± 470	–	–
Low residence time flow method	–	740.8 ± 10	–

C1CNCCN1 [piperazine]
Settings	Critical pressure [kPa]	Critical temperature [K]	vapor or sublimation pressure [kPa]
445.2 K	–	–	189.5 ± 20
471.6 K	–	–	343.6 ± 37
488.9 K	–	–	492.3 ± 53
528.1 K	–	–	992.6 ± 110
573.6 K	–	–	1994 ± 220
629.7 K	–	–	3997 ± 430
649.3 K	–	–	4994 ± 540
653.7 K	–	–	5243 ± 560
655 K	–	–	5348 ± 580
Low residence time flow calorimetry	5420 ± 320	656.3 ± 4	–
